These results are taken from patent US20170065952A1, “PICKERING EMULSION FORMULATIONS” (THE UNIVERSITY OF BIRMINGHAM, priority 2014, published 2017).

The structures appear in SMILES notation.

A short description of data set [1]: Release of lipophilic active (Sudan III) from W/O emulsion into external oil phase, UV-Vis. It is filed as physicochemical. The following applies: W/O emulsion Example 3C (tripalmitin particles 2C, Tween 20, sunflower oil continuous phase); burst release. The procedure:
(§1) Solid lipid particles were prepared according to Example 2C. Tripalmitin particles contained the lipophilic active (Sudan III) and were stabilised in the aqueous dispersion by Tween™ 20. After preparation the excess surfactant was dialysed off to distilled water.

Data set [2] can be described thus: Release of lipophilic active A (Sudan III) from O/W emulsion into external oil phase, UV-Vis. The format is physicochemical. The note with it: O/W emulsion (tripalmitin particles 2J, WPI, sunflower oil), observation period of 4 days.
Description: Known quantity of the O/W emulsion (e.g. 40 g) was placed in the beaker and gently topped up with a known quantity of sunflower oil (e.g. 50 g), termed “external” oil phase. An aliquot (ca. 1 mL) of the external oil phase was taken at time intervals, pressed through a syringe filter (0.2 μm pore size) and analysed using UV-Vis spectroscopy (at λ=510 nm). Using previously obtained calibration line, the concentration of the released active A was calculated.
Data set [3] is described as follows: Release of lipophilic active B (DMP) from O/W emulsion by dialysis into external water, UV-Vis. It is filed as physicochemical. The following applies: O/W emulsion (tripalmitin particles 2J, WPI), after 2 days of storage. As for the experimental part:
Solid lipid particles were prepared according to Example 2J. Tripalmitin matrix contained lipophilic active A (Sudan III) and were stabilised in aqueous dispersion by WPI.
O/W emulsions were prepared according to Example 4. A model lipophilic active B (DMP-dimethyl phthalate) was added to the sunflower oil included phase.
Known quantity of the O/W emulsion (e.g. 10 g) was placed inside a pre-hydrated cellulose tube and dialysed to a known quantity of distilled water (e.g. 100 g), termed “external” water/aqueous phase. An aliquot (ca. 1 mL) of the external water was taken at time intervals, pressed through a syringe filter (0.2 μm pore size) and analysed using UV-Vis spectroscopy (at λ=290 nm). Using previously obtained calibration line and the partitioning (sunflower oil/water) data of DMP, the concentration of the released active B was calculated.

How the values of data set [4] were obtained: Known quantity of the W/O emulsion (e.g. 45 g) was gently placed on the top of a known quantity of distilled water (e.g. 70 g) termed “external” water/aqueous phase. Calibrated conductivity probe was placed in the external aqueous phase and readings were taken on daily intervals.
as §1
W/O emulsions were prepared according to Example 3C, 3D and 3E. Hydrophilic active (NaCl) was added to the aqueous included phase and sunflower or silicone or mineral oils were used as the continuous phase.
The release of NaCl was measured as per Example 5.

Turning to `Oc1ccc2ccccc2c1N=Nc1ccc(N=Nc2ccccc2)cc1` [Sudan III], in data set [1], the “time of storage to complete release of lipophilic active” value is at most 10 h. The “release of active A from the lipid particles” value in data set [2] was “below 1%”.
With `COC(=O)c1ccccc1C(=O)OC` [DMP, dimethyl phthalate], the “release of active B from the dispersed sunflower oil phase” value in data set [3] turned out to be 100%.
In the case of `[Cl-].[Na+]` [NaCl], the “release of hydrophilic active to external water phase” value in data set [4] (W/O emulsion Example 3C, sunflower oil, over 17 days) was “very small”. Moreover, in data set [4] (W/O emulsion, heating to 40° C., fat crystals at interface melt), the “release of hydrophilic active upon heating” value is “all dispersed water phase with NaCl is delivered to the external water phase”. Moreover, the “release of the internal water phase with NaCl” value in data set [4] (water-in-mineral-oil emulsions (Example 3D), partially sintered particles) was “lower than for the non-sintered silicone oil emulsions and higher than the sintered sunflower oil emulsions”. The “release of NaCl to external water phase” value in data set [4] (water-in-silicone-oil emulsions (Example 3E), non-sintered particles) was “Relatively high release”.
